34 molecules from patent publication US20120065198A2, “Detection and Treatment of Schizophrenia” (Tokai University Educational System, priority 2007, published 2012) can be followed below.

Assay [1] concerns pentosidine formation. As to the kind of experiment: Inhibitory effects of phenylene derivatives (II) on AGEs (pentosidine) formation. It counts as biochemical. On the set-up: AGE Formation Inhibition Ratio (%): concentration or dose not given beside the values. Conditions: same method used in Test Example 1. As to the method: (§1) Plasma was collected from hemodialysis patients prior to dialysis with the patients' consent, and the plasma was filtered and sterilized. To the plasma (450 μL) was added solutions of TM-2002 in dimethylsulfoxide (50 μL) (final concentrations: 0.8, 2.0, and 5.0 mM), and the mixtures were incubated for 1 week at 37° C. The levels of the pentosidine formation were measured.
Pentosidine was measured as follows. To each sample (50 μL) after incubation was added an equal volume of 10% trichloroacetic acid, and the mixture was subsequently centrifuged at 5,000 g for 5 minutes. After the supernatant was removed, the pellet was washed with 5% trichloroacetic acid (300 μL). The pellet was dried under reduced pressure, and subsequently hydrolyzed in a 6N HCl solution (100 μL) under a nitrogen atmosphere for 16 hours at 110° C. To the acid hydrolysate was then added 5N NaOH (100 μL) and 0.5 M phosphate buffer (pH 7.4) (200 μL); the mixture was subsequently filtered through a micropore filter with 0.5 μm pores and diluted with PBS. The concentration of the released pentosidine was measured by reverse-phase HPLC using a fluorescence detector (RF-10A, Shimadzu Corporation) (Miyata, T. et al.; Proc. Natl. Acad. Sci. USA, Vol. 93, p. 2353-2358, 1996). The effluent was monitored at the excitation/emission wavelength of 335/385 nm. Synthetic pentosidine was used as the reference material. The detection limit of pentosidine was 0.1 pmol/mg protein. […]

The test system of assay [2] is pentosidine formation. The assay is described as follows: Inhibitory activity on pentosidine formation, samples incubated with BSA and arabinose. The following applies: 5 mM drug; incubated with BSA and arabinose instead of patient plasma. It counts as biochemical. As to the method:
as §1
Pentosidine was measured as follows. To each sample (50 μL) after incubation was added an equal volume of 10% trichloroacetic acid, and the mixture was subsequently centrifuged at 5,000 g for 5 minutes. After the supernatant was removed, the pellet was washed with 5% trichloroacetic acid (300 μL). The pellet was dried under reduced pressure, and subsequently hydrolyzed in a 6N HCl solution (100 μL) under a nitrogen atmosphere for 16 hours at 110° C. To the acid hydrolysate was then added 5N NaOH (100 μL) and 0.5 M phosphate buffer (pH 7.4) (200 μL); the mixture was subsequently filtered through a micropore filter with 0.5 μm pores and diluted with PBS. The concentration of the released pentosidine was measured by reverse-phase HPLC using a fluorescence detector (RF-10A, Shimadzu Corporation) (Miyata, T. et al.; Proc. Natl. Acad. Sci. USA, Vol. 93, p. 2353-2358, 1996). The effluent was monitored at the excitation/emission wavelength of 335/385 nm. Synthetic pentosidine was used as the reference material. The detection limit of pentosidine was 0.1 pmol/mg protein.
(2) Other edaravone analogues (Compounds (1) or (2)) were investigated for their inhibitory activities on pentosidine formation in the same manner as in Section (1) above, except that the samples were incubated with BSA and arabinose instead of the patient plasma. In the tables, “-” means that the test was not conducted.

For `O=C(O)c1cccc(N(Cc2ccc(-c3ccccc3-c3nnn[nH]3)cc2)C(=O)CCc2ccccc2)c1` [(II-1)], in the assay on pentosidine formation [1], the “AGE Formation Inhibition Ratio (%)” value is 80% and the “Pentosidine Formation Ratio (%)” value is on record as 20%. `CCCCCN(Cc1ccc(C2SC(=O)NC2=O)cc1)c1cccc(C(=O)O)c1` (stereo not drawn) [(II-6)]: in the assay with pentosidine formation [1], the “AGE Formation Inhibition Ratio (%)” value is on record as 80% and the “Pentosidine Formation Ratio (%)” value amounted to 20%. On the same counts, the results for `CC1CCc2ccc(C(=O)O)cc2N1Cc1ccc(C2SC(=O)NC2=O)cc1` (stereo not drawn) [(II-7)] are 87% and 13%. For the molecule `CS(=O)(=O)N(Cc1ccc(C2SC(=O)NC2=O)cc1)c1ccccc1` (stereo not drawn) [(II-8)], in the assay with pentosidine formation [1], the “AGE Formation Inhibition Ratio (%)” value came out at 81% and the “Pentosidine Formation Ratio (%)” value was found to be 19%.

In the case of `CCCCS(=O)(=O)N(Cc1ccc(C2SC(=O)NC2=O)cc1)c1ccccc1` (stereo not drawn) [(II-9)], in the assay on pentosidine formation [1], the “AGE Formation Inhibition Ratio (%)” value was 80% and the “Pentosidine Formation Ratio (%)” value is recorded as 20%. In the case of `CS(=O)(=O)N(Cc1ccc(C2SC(=O)NC2=O)cc1)c1cccc(C(=O)O)c1` (stereo not drawn) [(II-10)], in the assay on pentosidine formation [1], the “AGE Formation Inhibition Ratio (%)” value was determined as 86% and the “Pentosidine Formation Ratio (%)” value amounted to 14%. As to `CCCCS(=O)(=O)N(Cc1ccc(C2SC(=O)NC2=O)cc1)c1cccc(C(=O)O)c1` (stereo not drawn) [(II-11)], in the assay on pentosidine formation [1], the “AGE Formation Inhibition Ratio (%)” value was found to be 89% and the “Pentosidine Formation Ratio (%)” value is 11%. For `O=C1NC(=O)C(c2ccc(Cn3c(-c4ccccn4)nc4ccccc43)cc2)S1` (stereo not drawn) [(II-15)], in that order: 80% and 20%. In the case of `O=C1NC(=O)C(c2ccc(Cn3ccnc3-c3ccccc3)cc2)S1` (stereo not drawn) [(II-16)], in the assay on pentosidine formation [1], the “AGE Formation Inhibition Ratio (%)” value was 85% and the “Pentosidine Formation Ratio (%)” value was 15%. For the molecule `CCCc1cc2ccc(C(=O)O)cc2n(Cc2ccc(C3SC(=O)NC3=O)cc2)c1=O` (stereo not drawn) [(II-17)], in the assay on pentosidine formation [1], the “AGE Formation Inhibition Ratio (%)” value amounted to 84% and the “Pentosidine Formation Ratio (%)” value was determined as 16%.

For the molecule `O=C1NC(=O)C(c2ccc(CN(C(=O)C3CCCCC3)c3cccc(C(=O)O)c3)cc2)S1` (stereo not drawn) [(II-18)], in the assay on pentosidine formation [1], the “AGE Formation Inhibition Ratio (%)” value is reported as 85% and the “Pentosidine Formation Ratio (%)” value is listed as 15%. For `O=C1NC(=O)C(c2ccc(CN(C(=O)c3cccnc3)c3cccc(C(=O)O)c3)cc2)S1` (stereo not drawn) [(II-19)], in that order: 80% and 20%. For `O=C1NC(=O)C(c2ccc(CN(C(=O)CCc3ccccc3)c3cccc(C(=O)O)c3)cc2)S1` (stereo not drawn) [(II-20)], in that order: 92% and 8%. On the same counts, the results for `O=C1NC(=O)C(c2ccc(CN(C(=O)c3ccc(-c4ccccc4)cc3)c3cccc(C(=O)O)c3)cc2)S1` (stereo not drawn) [(II-21)] are 98% and 2%.

For `O=C1NC(=O)C(c2ccc(CN(c3cccc(C(=O)O)c3)S(=O)(=O)c3ccccc3)cc2)S1` (stereo not drawn) [(II-22)], in the assay on pentosidine formation [1], the “AGE Formation Inhibition Ratio (%)” value was found to be 85% and the “Pentosidine Formation Ratio (%)” value is 15%. For `Cc1ccc(S(=O)(=O)N(Cc2ccc(C3SC(=O)NC3=O)cc2)c2cccc(C(=O)O)c2)cc1` (stereo not drawn) [(II-23)], in the assay with pentosidine formation [1], the “AGE Formation Inhibition Ratio (%)” value is 90% and the “Pentosidine Formation Ratio (%)” value came to 10%. For the molecule `O=C1NC(=O)C(c2ccc(CN(c3cccc(C(=O)O)c3)S(=O)(=O)c3ccc(-c4ccccc4)cc3)cc2)S1` (stereo not drawn) [(II-24)], in the assay with pentosidine formation [1], the “AGE Formation Inhibition Ratio (%)” value is 91% and the “Pentosidine Formation Ratio (%)” value was found to be 9%. Turning to `O=C1NC(=O)C(c2ccc(CN(c3cccc(C(=O)O)c3)S(=O)(=O)c3ccc4ccccc4c3)cc2)S1` (stereo not drawn) [(II-25)], in the assay with pentosidine formation [1], the “AGE Formation Inhibition Ratio (%)” value worked out at 99% and the “Pentosidine Formation Ratio (%)” value is given as 1%.

Take `CCCC1CCc2ccc(C(=O)O)cc2N(Cc2ccc(C3SC(=O)NC3=O)cc2)C1=O` (stereo not drawn) [(II-28)]: in the assay with pentosidine formation [1], the “AGE Formation Inhibition Ratio (%)” value is 84% and the “Pentosidine Formation Ratio (%)” value was determined as 16%.

For the molecule `CC1(C)Cc2ccc(C(=O)O)cc2N(Cc2ccc(C3SC(=O)NC3=O)cc2)C1=O` (stereo not drawn) [(II-29)], in the assay with pentosidine formation [1], the “AGE Formation Inhibition Ratio (%)” value is reported as 86% and the “Pentosidine Formation Ratio (%)” value is 14%.

`O=C1NC(=O)C(c2ccc(CN3C(=O)C4(CC4)Cc4ccc(C(=O)O)cc43)cc2)S1` (stereo not drawn) [(II-30)]: in the assay with pentosidine formation [1], the “AGE Formation Inhibition Ratio (%)” value was 87% and the “Pentosidine Formation Ratio (%)” value was found to be 13%. On the same counts, the results for `O=C(O)c1cccc(N(CCc2ccccc2)Cc2ccc(-c3ccccc3-c3nnn[nH]3)cc2)c1` [(II-32)] are 81% and 19%. For `Cc1oc(-c2ccccc2)nc1CC(=O)N(Cc1ccc(C2SC(=O)NC2=O)cc1)c1cccc(C(=O)O)c1` (stereo not drawn) [(II-33)], in that order: 82% and 18%.

With `O=C(O)c1cccc(N(CC(=O)c2ccccc2)Cc2ccc(-c3ccccc3-c3nnn[nH]3)cc2)c1` [(II-42)], in the assay with pentosidine formation [1], the “AGE Formation Inhibition Ratio (%)” value turned out to be 93% and the “Pentosidine Formation Ratio (%)” value is 7%. For `Cc1nc(-c2ccc(S(=O)(=O)N(Cc3ccc(C4SC(=O)NC4=O)cc3)c3cccc(C(=O)O)c3)cc2)cs1` (stereo not drawn) [(II-63)], in that order: 80% and 20%. For `O=C1NC(=O)C(c2ccc(CN(Cc3ccc(-c4ccccc4)cc3)c3cccc(C(=O)O)c3)cc2)S1` (stereo not drawn) [(II-68)], in that order: 80% and 20%. `CC1=NN(c2ccccc2)C(=O)C1CCC(=O)O` (stereo not drawn) [compound 7]: the “Pentosidine Formation Ratio (%) at 5 mM Drug Concentration” value in the assay with pentosidine formation [2] was 64.64%.

Regarding `CC1=NN(c2ccccc2)C(=O)C1C(c1ccccc1)c1c(C)nn(-c2ccccc2)c1O` (stereo not drawn) [compound 9, 4-[(5-hydroxy-3-methyl-1-phenyl-1H-pyrazol-4-yl)-phenyl-methyl]-5-methyl-2-phenyl-2,4-dihydro-pyrazol-3-one], the “Pentosidine Formation Ratio (%) at 5 mM Drug Concentration” value with pentosidine formation [2] turned out to be 7.52%. The same measure, in the same setting: the value for `CC(=O)NC1C(=O)N(c2ccccc2)N=C1C` (stereo not drawn) [compound 12, N-(3-methyl-5-oxo-1-phenyl-4,5-dihydro-1H-pyrazol-4-yl)-acetamide] was 54.21%; that for `CC1=NN(c2cccc([N+](=O)[O-])c2)C(=O)C1Sc1nnnn1-c1ccccc1` (stereo not drawn) [compound 13, 5-methyl-2-(3-nitro-phenyl)-4-(1-phenyl-1H-tetrazol-5-ylsulfanyl)-2,4-dihydro-pyrazol-3-one] was 74.66%.

Take `O=C(NC1=NN(c2ccccc2)C(=O)C1Sc1nnnn1-c1ccccc1)c1ccccc1` (stereo not drawn) [compound 14, N-[5-oxo-1-phenyl-4-(1-phenyl-1H-tetrazol-5-ylsulfanyl)-4,5-dihydro-1H-pyrazol-3-yl]-benzamide]: the “Pentosidine Formation Ratio (%) at 5 mM Drug Concentration” value in the assay on pentosidine formation [2] was found to be 61.27%.

As for `CC1=NN(c2ccccc2)C(=O)C1C1C(=O)N(c2ccccc2)N=C1C` (stereo not drawn) [compound 17, 5,5′-dimethyl-2,2′-diphenyl-2,4,2′,4′-tetrahydro [4,4′]bipyrazole-3,3′-dione], the “Pentosidine Formation Ratio (%) at 5 mM Drug Concentration” value with pentosidine formation [2] amounted to 60.96%. As for `COc1ccc(-c2csc(SC3C(=O)N(c4ccccc4)N=C3C)n2)cc1` (stereo not drawn) [compound 19], in the assay with pentosidine formation [2], the “Pentosidine Formation Ratio (%) at 5 mM Drug Concentration” value is reported as 40.19%. As for `CCCC1=NN(c2ccccc2)C(=O)C1CC(=O)c1ccccc1` (stereo not drawn) [compound 20], in the assay on pentosidine formation [2], the “Pentosidine Formation Ratio (%) at 5 mM Drug Concentration” value was 83.12%.
